Laboratory results as given in US11007250B2, “Methods and kits for treating pain” (Duke University, priority 2017, dated 2021).

Experiments:
naive mice = assay: Basal pain in naive mice (von Frey test, spontaneous pain); type: in vivo, mouse; details: RMP1-14 5 μg, Nivolumab 10 μg
[1] = tested on: small-diameter neurons of whole-mount DRG; assay: Whole-cell patch clamp recordings in whole mount DRGs ex vivo; type: cell-based, mouse; details: WT whole mount DRG; sPD-1 30 ng/ml, Nivolumab 300 ng/ml
Experimental: Whole-cell patch clamp recordings in whole mount DRGs of mice ex vivo. L4-L5 DRGs were carefully removed 4 days after sham surgery or CCI surgery and placed in cold oxygenated ACSF. The connective tissue was gently removed under a microscope and the ganglia were digested with a mixture of 0.4 mg/mL trypsin (Sigma) and 1.0 mg/ml type-A collagenase (Sigma) for 30 min at 37° C. The intact ganglia were then incubated in ACSF oxygenated with 95% O2 and 5% CO2 at 28° C. for at least 1 h before transferring them to the recording chamber. DRG neurons were visualized with a 40× water-immersion objective using a BX51WI microscope (Olympus). Whole-cell current and voltage recordings were acquired with an Axon700B amplifier. Patch pipettes (4-7 MO) were pulled from borosilicate glass capillaries on P-97 puller. The recording chamber (300 μl) was continuously superfused (3-4 ml/min). Series resistance was compensated for (>80%), and leak subtraction was performed. The pipette solution contained (in mM): 140 KCl, 2 MgCl2, 10 Hepes, 2 Mg-ATP, pH 7.4. Osmolarity was adjusted to 290-300 mOsm. Data was acquired with a Digidata 1322A acquisition system (molecular devices) using pCLAMP 9.0 software. Signals were low-pass filtered at 5 kHz, sampled at 10 kHz and analyzed offline.

[2] = tested on: lamina 110 neurons in spinal cord slices; assay: Patch clamp recordings of sEPSCs in spinal cord slices; type: cell-based, mouse; details: Nivolumab 300 ng/ml
[3] = tested on: spinal wide dynamic range (WDR) neurons; assay: Extracellular recording of spinal WDR neurons in bone cancer rats in vivo; parameters: species or system rat; details: PD-L1 20 μg i.t., day 14; Nivolumab 10 μg i.t., day 8
Experimental: Rat bone cancer pain model. Tumor cells were extracted from the ascetic fluid of rats that received Walker 256 rat mammary gland carcinoma cells, and suspension of 1×10^8/ml tumor cells in PBS was prepared. The inoculation was performed as previously described (Yang, Y, et al. J. Neurosci., 2015, 35:7950-7963). Briefly, rats were anesthetized with sodium pentobarbital (50 mg/kg, intraperitoneal). The right leg was shaved, and the skin was disinfected with iodine tincture and 75% ethanol. A 22-gauge needle was inserted at the site of the intercondylar eminence of the right tibia and was then replaced with a 10 μl microinjection syringe containing a 4 μl suspension of tumor cells (4×10^5). The contents of the syringe were slowly injected into the tibia cavity. To prevent leakage of cells outside the bone, the injection site was sealed with bone wax. […]
Extracellular recording in rat spinal cord in vivo. […] The electrocardiogram was monitored, and the heart rate was maintained at 250-300/min. […] WDR neurons responding to innocuous stimulation and to a greater degree, noxious stimulation of the RF were analyzed in the present study. The recorded signals were amplified with a microelectrode amplifier (1800 A-M System, USA) and fed to computer via a CED 1401 interface for off-line analysis using the Spike 2 software (Cambridge Electronic Design, Cambridge, UK). […]

[4] = tested on: mice with LLC bone cancer; assay: Bone cancer pain model, Lewis lung cancer (LLC) cells in tibia; type: in vivo, mouse; details: Nivolumab 10 mg/kg IV on day 0, 3, 7, 10, 14
From the text: (B) Cancer pain, as measured by mechanical pain sensitivity (paw withdrawal threshold) in von Frey test. (C) Mechanical allodynia (paw withdrawal frequency to a subthreshold filament, 0.4 g) in von Frey test. (D) Cold allodynia (lifting and licking time) in acetone test. (E) Heat hyperalgesia (paw withdrawal latency) in Hargreaves test. (B-E) n=9-11 mice in each group; Two-way ANOVA with Bonferroni's hoc-test; *P<0.05, compared with baseline; #P<0.05, compared with Saline group.

[5] = tested on: tibia bone of mice with LLC bone cancer; assay: X-ray bone destruction score in LLC bone cancer model; type: in vivo, mouse; details: Nivolumab 10 mg/kg IV; scores 8, 11 and 15 days after tumor inoculation
Experimental: FIG. 27. Intravenous injections of Nivolumab protect against bone destruction after tumor inoculation. […] (B) X-ray images showing tibia bones 11 days after tumor inoculation. Arrows show bone destruction in saline-treated animals. (C) Bone destruction scores 8, 11, and 15 days after tumor inoculation. The scores were assessed as follows: Score 0, normal bone with no signs of destruction; Scorel, small radiolucent lesions indicative of bone destruction (one to three lesions); Score 2, increased number of lesions (three to six lesions) and loss of medullary bone; Score 3, loss of medullary bone and erosion of cortical bone; Score 4, full-thickness unicortical bone loss; Score 5, full-thickness bicortical bone loss and displaced skeletal fracture. n=9-11 in each group, male, 8-10 weeks; Two-way ANOVA with Bonferroni's hoc-test; *P<0.05, compared with baseline; #P<0.05, compared with Saline group; Scores n were shown by the arrows in B.
Since cancers often become painful after metastasis to bone tissue, we examined the role of PD-1 in a bone cancer pain model following inoculation of Lewis lung cancer (LLC) cells into tibia bone cavity. […]

[6] = PD-L1 30 ng/ml, sPD-1 30 ng/ml perfusion, 3 h

Nivolumab: FDA-approved fully humanized IgG4 monoclonal anti-PD-1 antibody, Bristol-Myers Squibb
effect on PD-L1's analgesic effects (naive mice; antibody i.pl. 30 min prior to PD-L1 (5 μg, i.pl.)): blocked
duration of mechanical allodynia in naive mice (naive mice; i.pl., sPD-1 5 μg): 5 h
mechanical allodynia in naive mice (naive mice; i.pl., sPD-1 5 μg): marked mechanical allodynia
firing rate of action potentials [1]: increased the firing rate
effect on PD-L1's inhibition of sEPSC frequency ([2]; 3 h incubation): blocked
amplitude of spontaneous EPSCs (sEPSCs) [2, 6]: not amplitude
frequency of spontaneous EPSCs (sEPSCs) [2, 6]: increased sEPSC frequency
activity of WDR neurons in bone cancer rats [3]: enhanced activities of WDR neurons
cancer pain days after each treatment [4]: sustained beneficial effects on cancer pain relief
tibia bone destruction during cancer progression (X-ray) [5]: protected
